Results taken from US12344603B2 (Genentech, Inc., priority 2020, dated 2025).
Counter-ions that a name gives are not always drawn.

The compounds below were run against IRE1α (Homo sapiens (Human), UniProt O75460, D688N) (assay: IRE1α TR-FRET competition binding assay (IRE1α HTRF)). Conditions: TR-FRET competition binding to kinase domain of IRE1α.
Method in brief: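 Kinase domain (0.25 nM) pre-bound to 2 nM Eu anti-His antibody for 1 h at 4° C in HEPES pH 7.5/MgCl2/Brij 35/DTT/gamma globulin buffer, then mixed with compounds and 2 nM Alexa 647 ATP-competitive probe. 1 h at room temperature; probe displacement read as TR-FRET (Ex 347 nm, Em 665/615 nm).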

Sequence of IRE1α (O75460 547-977 D688N): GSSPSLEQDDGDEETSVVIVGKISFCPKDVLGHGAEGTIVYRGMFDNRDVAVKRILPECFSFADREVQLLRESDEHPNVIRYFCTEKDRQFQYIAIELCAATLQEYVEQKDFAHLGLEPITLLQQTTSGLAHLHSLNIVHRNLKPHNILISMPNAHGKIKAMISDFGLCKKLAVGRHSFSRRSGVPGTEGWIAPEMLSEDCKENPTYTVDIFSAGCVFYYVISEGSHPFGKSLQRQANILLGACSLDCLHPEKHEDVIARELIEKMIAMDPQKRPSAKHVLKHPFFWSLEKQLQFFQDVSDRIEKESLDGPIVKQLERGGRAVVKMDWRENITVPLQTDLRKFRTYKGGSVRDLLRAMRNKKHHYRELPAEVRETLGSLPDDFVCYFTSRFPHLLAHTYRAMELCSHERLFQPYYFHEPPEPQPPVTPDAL

Row | SMILES | IC50 [nM]
1 | CC(C)n1c(=O)c(-c2c(F)cc(NS(=O)(=O)Cc3ccc(F)cc3)cc2F)cc2cnc(N[C@@H]3CNC[C@@H](F)C3)nc21 [Compound 130, N-(3,5-Difluoro-4-(2-(((3S,5S)-5-fluoropiperidin-3-yl)amino)-8-isopropyl-7-oxo-7,8-dihydropyrido[2,3-d]pyrimidin-6-yl)phenyl)-1-(4-fluorophenyl)methanesulfonamide hydrochloride] | 0.38
2 | CC(C)n1c(=O)c(-c2ccc(NS(=O)(=O)Cc3ccc(F)cc3)c(F)c2)cc2cnc(N[C@@H]3CNC[C@@H](F)C3)nc21 [Compound 112, N-(2-Fluoro-4-(2-(((3S,5S)-5-fluoropiperidin-3-yl)amino)-8-isopropyl-7-oxo-7,8-dihydropyrido[2,3-d]pyrimidin-6-yl)phenyl)-1-(4-fluorophenyl)methanesulfonamide hydrochloride] | 0.13
3 | CC(C)n1c(=O)c(-c2cc(F)c(NS(=O)(=O)Cc3ccc(Cl)cc3)c(F)c2)cc2cnc(N[C@H]3CC[C@H](N(C)C)CC3)nc21 [Compound 116, 1-(4-Chlorophenyl)-N-(4-(2-(((1r,4r)-4-(dimethylamino)cyclohexyl)amino)-8-isopropyl-7-oxo-7,8-dihydropyrido[2,3-d]pyrimidin-6-yl)-2,6-difluorophenyl)methanesulfonamide] | 0.25
4 | CC(C)n1c(=O)c(-c2ccc(NS(=O)(=O)CCC(F)(F)F)c(F)c2)cc2cnc(NC3CCNCC3)nc21 [Compound 201, 3,3,3-Trifluoro-N-(2-fluoro-4-(8-isopropyl-7-oxo-2-(piperidin-4-ylamino)-7,8-dihydropyrido[2,3-d]pyrimidin-6-yl)phenyl)propane-1-sulfonamide] | 8.7
5 | CC(C)n1c(=O)c(-c2cc(F)c(NS(=O)(=O)Cc3ccc(F)cc3)c(F)c2)nc2cnc(N[C@H]3CC[C@H](N(C)C)CC3)nc21 [Example 245, N-[4-[2-[[4-(Dimethylamino)cyclohexyl]amino]-8-isopropyl-7-oxo-pteridin-6-yl]-2,6-difluoro-phenyl]-1-(4-fluorophenyl)methanesulfonamide] | 0.1
6 | CC(C)n1c(=O)c(-c2ccc(NS(=O)(=O)CC3CCC3(F)F)c(F)c2)cc2cnc(N[C@H]3CC[C@H](N(C)C)CC3)nc21 (single isomer, unassigned) [Compound 153B, 1-(2,2-Difluorocyclobutyl)-N-(4-(2-(((1r,4r)-4-(dimethylamino)cyclohexyl)amino)-8-isopropyl-7-oxo-7,8-dihydropyrido[2,3-d]pyrimidin-6-yl)-2-fluorophenyl)methanesulfonamide] | 0.16
7 | CC(C)n1c(=O)c(-c2cc(F)c(NS(=O)(=O)Cc3ccc(F)cc3)cc2F)cc2cnc(N[C@H]3CC[C@H](N(C)C)CC3)nc21 [Compound 127, N-(4-(2-(((1r,4r)-4-(Dimethylamino)cyclohexyl)amino)-8-isopropyl-7-oxo-7,8-dihydropyrido[2,3-d]pyrimidin-6-yl)-2,5-difluorophenyl)-1-(4-fluorophenyl)methanesulfonamide] | 0.11
8 | COc1ccc(Cl)cc1CS(=O)(=O)Nc1c(F)cc(-c2cc3cnc(N[C@@H]4CNC[C@@H](F)C4)nc3n(C(C)C)c2=O)c(F)c1F [Compound 97, 1-(5-Chloro-2-methoxyphenyl)-N-(2,3,6-trifluoro-4-(2-(((3S,5S)-5-fluoropiperidin-3-yl)amino)-8-isopropyl-7-oxo-7,8-dihydropyrido[2,3-d]pyrimidin-6-yl)phenyl)methanesulfonamide hydrochloride] | 0.27
9 | CC(C)n1c(=O)c(-c2ccc(NS(=O)(=O)CCC(F)(F)F)c(F)c2)cc2cnc(N[C@@H]3CC[C@@H](N(C)C)[C@H](O)C3)nc21 [Example 227, N-(4-(2-(((1R,3R,4R)-4-(Dimethylamino)-3-hydroxycyclohexyl)amino)-8-isopropyl-7-oxo-7,8-dihydropyrido[2,3-d]pyrimidin-6-yl)-2-fluorophenyl)-3,3,3-trifluoropropane-1-sulfonamide] | 0.3
10 | CC(C)n1c(=O)c(-c2ccc(NS(=O)(=O)CC3CCC(F)(F)CC3)c(F)c2)nc2cnc(N[C@H]3CC[C@H](N(C)C)CC3)nc21 [Example 271, 1-(4,4-Difluorocyclohexyl)-N-[4-[2-[[4-(dimethylamino)cyclohexyl]amino]-8-isopropyl-7-oxo-pteridin-6-yl]-2-fluoro-phenyl]methanesulfonamide] | 0.2
11 | CC(C)n1c(=O)c(-c2ccc(NS(=O)(=O)CC3CC4C(C3)C4(F)F)c(F)c2)nc2cnc(N[C@H]3CC[C@H](N(C)C)CC3)nc21 (some centres unmarked) [Example 265, 1-(6,6-Difluoro-3-bicyclo[3.1.0]hexanyl)-N-[4-[2-[[4-(dimethylamino)cyclohexyl]amino]-8-isopropyl-7-oxo-pteridin-6-yl]-2-fluorophenyl]methanesulfonamide] | 0.2
12 | Cn1c(=O)c(-c2ccc(NS(=O)(=O)Cc3ccccc3)c(F)c2F)cc2cnc(N[C@H]3CCCNC3)nc21 [Compound 1, (S)—N-(2,3-Difluoro-4-(8-methyl-7-oxo-2-(piperidin-3-ylamino)-7,8-dihydropyrido[2,3-d]pyrimidin-6-yl)phenyl)-1-phenylmethanesulfonamide] | 2.8
13 | O=c1c(-c2cc(F)c(NS(=O)(=O)Cc3ccccc3)c(F)c2F)cc2cnc(N[C@@H]3CNC[C@@H](F)C3)nc2n1C1CCC1 [Compound 28, N-(4-(8-Cyclobutyl-2-(((3S,5S)-5-fluoropiperidin-3-yl)amino)-7-oxo-7,8-dihydropyrido[2,3-d]pyrimidin-6-yl)-2,3,6-trifluorophenyl)-1-phenylmethanesulfonamide] | 0.19
14 | CC(C)n1c(=O)c(-c2cc(F)c(NC(=O)C3CC3F)c(F)c2F)cc2cnc(N[C@H]3CC[C@H](N(C)C)CC3)nc21 (single isomer, unassigned) [Compound 98B, N-(4-(2-(((1r,4r)-4-(Dimethylamino)cyclohexyl)amino)-8-isopropyl-7-oxo-7,8-dihydropyrido[2,3-d]pyrimidin-6-yl)-2,3,6-trifluorophenyl)-2-fluorocyclopropane-1-carboxamide] | 2.2
15 | CC(C)n1c(=O)c(-c2ccc(NS(=O)(=O)CCC(F)(F)F)c(F)c2)cc2cnc(NC3CCC4(CC3)CN(CCF)C4)nc21 [Example 235, 3,3,3-trifluoro-N-(2-fluoro-4-(2-((2-(2-fluoroethyl)-2-azaspiro-[3.5]nonan-7-yl)amino)-8-isopropyl-7-oxo-7,8-dihydropyrido[2,3-d]-pyrimidin-6-yl)phenyl)-propane-1-sulfonamide] | 0.3

The remaining lines, values ahead:

Row | IC50 [nM] | SMILES
16 | 0.3 | CC(C)n1c(=O)c(-c2ccc(NS(=O)(=O)CCC(F)(F)F)c(F)c2)cc2cnc(N[C@@H]3CNC[C@@H](F)C3)nc21 [Compound 92, 3,3,3-Trifluoro-N-(2-fluoro-4-(2-(((3S,5S)-5-fluoropiperidin-3-yl)amino)-8-isopropyl-7-oxo-7,8-dihydropyrido[2,3-d]pyrimidin-6-yl)phenyl)propane-1-sulfonamide]
17 | 1.1 | O=c1c(-c2ccc(NS(=O)(=O)Cc3ccccc3)c(F)c2F)cc2cnc(N[C@@H]3CNC[C@@H](F)C3)nc2n1C1CC1 [Compound 10, N-(4-(8-cyclopropyl-2-(((3S,5S)-5-fluoropiperidin-3-yl)amino)-7-oxo-7,8-dihydropyrido[2,3-d]pyrimidin-6-yl)-2,3-difluorophenyl)-1-phenylmethanesulfonamide]
18 | 0.29 | CC(C)n1c(=O)c(-c2ccc(NS(=O)(=O)CCC(C)(F)F)c(F)c2)nc2cnc(N[C@H]3CC[C@H](N(C)C)CC3)nc21 [Compound 66, N-(4-(2-(((1r,4r)-4-(Dimethylamino)cyclohexyl)amino)-8-isopropyl-7-oxo-7,8-dihydropteridin-6-yl)-2-fluorophenyl)-3,3-difluorobutane-1-sulfonamide]
19 | 98 | CCn1c(=O)c(-c2cc(NS(=O)(=O)Cc3ccccc3)nn2C)cc2cnc(N[C@@H]3CNC[C@@H](F)C3)nc21 [Compound 69, N-(5-(8-ethyl-2-(((3S,5S)-5-fluoropiperidin-3-yl)amino)-7-oxo-7,8-dihydropyrido[2,3-d]pyrimidin-6-yl)-1-methyl-1H-pyrazol-3-yl)-1-phenylmethanesulfonamide]
20 | 0.14 | CC(C)n1c(=O)c(-c2cc(F)c(NS(=O)(=O)Cc3ccc(F)cc3)c(F)c2F)nc2cnc(N[C@H]3CC[C@H](N(C)C)CC3)nc21 [Compound 175, N-(4-(2-(((1r,4r)-4-(Dimethylamino)cyclohexyl)amino)-8-isopropyl-7-oxo-7,8-dihydropteridin-6-yl)-2,3,6-trifluorophenyl)-1-(4-fluorophenyl)methanesulfonamide hydrochloride]
21 | 0.33 | CC(C)n1c(=O)c(-c2cc(F)c(NS(=O)(=O)CCC(F)(F)F)c(F)c2F)cc2cnc(N[C@H]3CC[C@H](N(C)C)CC3)nc21 [Compound 25, N-(4-(2-(((1r,4r)-4-(Dimethylamino)cyclohexyl)amino)-8-isopropyl-7-oxo-7,8-dihydropyrido[2,3-d]pyrimidin-6-yl)-2,3,6-trifluorophenyl)-3,3,3-trifluoropropane-1-sulfonamide]
22 | 0.18 | CCCS(=O)(=O)Nc1ccc(-c2nc3cnc(N[C@H]4CC[C@H](N(C)C)CC4)nc3n(C(C)C)c2=O)c(F)c1 [Compound 161, N-(4-(2-(((1r,4r)-4-(Dimethylamino)cyclohexyl)amino)-8-isopropyl-7-oxo-7,8-dihydropteridin-6-yl)-3-fluorophenyl)propane-1-sulfonamide]
23 | 0.57 | CCn1c(=O)c(-c2ccc(NS(=O)(=O)Cc3ccccc3)c(F)c2F)cc2cnc(N[C@@H]3CNC[C@@H](F)C3)nc21 [Compound 12, N-(4-(8-Ethyl-2-(((3S,5S)-5-fluoropiperidin-3-yl)amino)-7-oxo-7,8-dihydropyrido[2,3-d]pyrimidin-6-yl)-2,3-difluorophenyl)-1-phenylmethanesulfonamide]
